Laboratory results reported in the C3SDB collision cross section collection.

Experiments:
[1] = [M+H]+; instrument: TW; Major Mix IMS/Tof Calibration Kit (Waters)
[2] = instrument: DT, stepped-field

SMILES | collision cross section (N2) ([2]; [M+2Na-H]+) | collision cross section (N2) ([2]; [M+Na]+) | other results
COc1cc(CCN)c(OC)cc1I [2C-I] |  |  | collision cross section (N2) [1]: 157.7 Å²
COc1ccc2[nH]cc(CCN(C)C)c2c1 [5-MeO-DMT] |  |  | collision cross section (N2) [1]: 150.3 Å²
CCCCC/C=C\C/C=C\CCCCCCCCCC(=O)O[C@H](COC(=O)CCCCCCCCCCCCCCCCC)COP(=O)([O-])OCC[N+](C)(C)C [PC(38:02)] |  |  | collision cross section (N2) ([2]; [M+Cl]-): 300.55 Å²
CCCCC/C=C\C/C=C\C/C=C\CCCCCCC(=O)O[C@H](COC(=O)CCCCCCC/C=C\CCCCCCCC)COP(=O)([O-])OCC[N+](C)(C)C [PC(38:04)] |  |  | collision cross section (N2) ([2]; [M+Cl]-): 298.46 Å²; collision cross section (N2) ([2]; [M+HCOO]-): 298.03 Å²
CC/C=C\C/C=C\C/C=C\CCCCCCCC(=O)O[C@H](COC(=O)CCCCCCCCCCCCCCC)COP(=O)(O)OCCN [PE(34:03)] | 271.16 Å² | 271.73 Å² | collision cross section (N2) ([2]; [M+H]+): 265.93 Å²; collision cross section (N2) ([2]; [M-H]-): 263.76 Å²
CCCCC/C=C\C/C=C\CCCCCCCCCC(=O)O[C@H](COC(=O)CCCCCCC/C=C\CCCCCC)COP(=O)(O)OCCN [PE(36:03)] | 279.42 Å² | 277.57 Å² | collision cross section (N2) ([2]; [M+H]+): 273.34 Å²; collision cross section (N2) ([2]; [M+K]+): 278.94 Å²; collision cross section (N2) ([2]; [M-H]-): 269.84 Å²
CCCCCCCC/C=C\C/C=C\CCCCC(=O)OC[C@H](COP(=O)(O)OCCN)OC(=O)CCCC/C=C\C/C=C\CCCCCCCC [PE(36:04)] | 277.05 Å² |  | collision cross section (N2) ([2]; [M+K]+): 277.24 Å²; collision cross section (N2) ([2]; [M-H]-): 269.7 Å²
CCCCC/C=C\C/C=C\C/C=C\CCCCCCC(=O)O[C@H](COC(=O)CCCCCCC/C=C\C/C=C\CCCCC)COP(=O)(O)OCCN [PE(38:05)] | 283.55 Å² |  | collision cross section (N2) ([2]; [M+K]+): 282.77 Å²; collision cross section (N2) ([2]; [M-H]-): 274.82 Å²
CCCCC/C=C\C/C=C\C/C=C\C/C=C\CCCCCC(=O)O[C@H](COC(=O)CCCCCCC/C=C\C/C=C\CCCCC)COP(=O)(O)OCCN [PE(40:06)] | 287.86 Å² |  | collision cross section (N2) ([2]; [M-H]-): 280.5 Å²
CCCCC/C=C\C/C=C\C/C=C\C/C=C\CCCCCC(=O)O[C@H](COC(=O)CCC/C=C\C/C=C\C/C=C\C/C=C\CCCCC)COP(=O)(O)OCCN [PE(42:08)] |  | 290.41 Å² | 
CC/C=C\C/C=C\C/C=C\C/C=C\C/C=C\C/C=C\CCC(=O)O[C@H](COC(=O)CCCCCC/C=C\C/C=C\C/C=C\CCCCC)COP(=O)(O)OCCN [PE(42:09)] |  | 288.64 Å² | 
CCCC/C=C\CCCCCCCC(=O)O[C@H](COCCCCCCCCCCCCCCCCCC)COP(=O)(O)OCCN [PE(o32:01)] | 268.35 Å² |  | 
CCCCC/C=C\C/C=C\C/C=C\CCCCC(=O)O[C@H](COCCCCCCCCCCCCCCCCCC)COP(=O)(O)OCCN [PE(o36:03)] | 279.47 Å² | 277.92 Å² | collision cross section (N2) ([2]; [M+H]+): 272.47 Å²
CCCCC/C=C\C/C=C\C/C=C\C/C=C\CCCC(=O)O[C@H](COCCCCCCCCCCCCCCCC)COP(=O)(O)OCCN [PE(o36:04)] | 278.13 Å² |  | 
CCCCC/C=C\C/C=C\C/C=C\C/C=C\C/C=C\CCC(=O)O[C@H](COCCCCCCCCCCCCCCCC)COP(=O)(O)OCCN [PE(o38:05)] | 282.48 Å² |  | 

More lines, main results first:

collision cross section (N2) ([2]; [M+2Na-H]+) | collision cross section (N2) ([2]; [M+Na]+) | SMILES | other results
292.02 Å² | 290.25 Å² | CCCCCCCCCCC/C=C\CCCCC(=O)O[C@H](COC(=O)CCCCCCCCCCCCCCCCC)COP(=O)([O-])OCC[N+](C)(C)C [PC(36:01)] | collision cross section (N2) ([2]; [M+Cl]-): 296.27 Å²; collision cross section (N2) ([2]; [M+HCOO]-): 296.46 Å²; collision cross section (N2) ([2]; [M+H]+): 288.22 Å²; collision cross section (N2) ([2]; [M+K]+): 291.07 Å²
288.51 Å² | 287.02 Å² | CCCCCCCC/C=C\C/C=C\CCCCC(=O)O[C@H](COC(=O)CCCCCCC/C=C\CCCCCCCC)COP(=O)([O-])OCC[N+](C)(C)C [PC(36:03)] | collision cross section (N2) ([2]; [M+Cl]-): 293.42 Å²; collision cross section (N2) ([2]; [M+HCOO]-): 293.56 Å²
 | 297.42 Å² | CCCCC/C=C\C/C=C\C/C=C\C/C=C\CCCC(=O)O[C@H](COC(=O)CCCCCCCCCCCCCCCCCCC)COP(=O)([O-])OCC[N+](C)(C)C [PC(40:04)] | 
279.57 Å² | 279.26 Å² | CCCC/C=C\CCCCCCCC(=O)OC[C@H](COP(=O)(O)OCCN)OC(=O)CCCCCCCCCCCCCCCCCCCC [PE(35:01)] | 
273.55 Å² | 273.65 Å² | CCCCC/C=C\C/C=C\CCCCCCCC(=O)O[C@H](COCCCCCCCCCCCCCCCC)COP(=O)(O)OCCN [PE(o34:02)] | 
